Assay results from ChEMBL document CHEMBL3390835, “New insight into the mode of action of vancomycin dimers in bacterial cell wall synthesis” (Medchemcomm, 2011).
≈ marks a conversion by molar mass, not a printed value. Calls of active or inactive are those of the source. The rule behind the calls is not given here.

What was measured:
Staphylococcus aureus [1] = assay: Inhibition of cell wall synthesis in vancomycin-resistant Staphylococcus aureus assessed as reduction of peptidoglycan synthesis using UDP-Mur-NAc-pentapeptide (L-Ala-gamma-D-Glu-L-Lys-D-Ala-D-Lactate), UDPGlcNAc and [14C] glycine as precursors; type: functional, organism-based
Staphylococcus aureus [2] = assay: Inhibition of cell wall synthesis in vancomycin-susceptible Staphylococcus aureus assessed as reduction of peptidoglycan synthesis using UDP-Mur-NAc-pentapeptide (L-Ala-gamma-D-Glu-L-Lys-D-Ala-D-Ala), UDPGlcNAc and [14C] glycine as precursors; type: functional, organism-based
Staphylococcus aureus [3] = assay: Antibacterial activity against vancomycin-susceptible Staphylococcus aureus RN4220; type: functional
Staphylococcus aureus [4] = assay: Inhibition of cell wall synthesis in vancomycin-susceptible Staphylococcus aureus assessed as reduction of lipid intermediate synthesis using UDP-Mur-NAc-pentapeptide (L-Ala-gamma-D-Glu-L-Lys-D-Ala-D-Ala), UDPGlcNAc and [14C] glycine as precursors; type: functional, organism-based
Enterococcus faecium [5] = assay: Antibacterial activity against vancomycin A-resistant Enterococcus faecium SR7940; type: functional
Staphylococcus aureus [6] = assay: Inhibition of cell wall synthesis in vancomycin-resistant Staphylococcus aureus assessed as reduction of lipid intermediate synthesis using UDP-Mur-NAc-pentapeptide (L-Ala-gamma-D-Glu-L-Lys-D-Ala-D-Lactate), UDPGlcNAc and [14C] glycine as precursors; type: functional, organism-based
Enterococcus faecium [7] = assay: Antibacterial activity against vancomycin B-resistant Enterococcus faecium SR23598; type: functional
Enterococcus faecium [8] = assay: Inhibition of DNA synthesis in vancomycin B-resistant Enterococcus faecium SRM1101 assessed as [14C]thymidine incorporation measured after 15 mins cultivation; type: functional, organism-based
Enterococcus faecium [9] = assay: Inhibition of RNA synthesis in vancomycin B-resistant Enterococcus faecium SRM1101 assessed as [3H]uracil incorporation measured after 15 mins cultivation; type: functional, organism-based
Enterococcus faecium [10] = assay: Inhibition of fatty acid synthesis in vancomycin B-resistant Enterococcus faecium SRM1101 assessed as [14C]acetic acid incorporation measured after 15 mins cultivation; type: functional, organism-based
Enterococcus faecium [11] = assay: Inhibition of protein synthesis in vancomycin B-resistant Enterococcus faecium SRM1101 assessed as [14C]leucine incorporation measured after 15 mins cultivation; type: functional, organism-based
Enterococcus faecium [12] = assay: Inhibition of peptidoglycan synthesis in vancomycin B-resistant Enterococcus faecium SRM1101 assessed as [3H]N-acetyl-D-glucosamine incorporation measured after 15 mins cultivation; type: functional, organism-based

SMILES	IC50 (Staphylococcus aureus [1]) [µg/mL]	IC50 (Staphylococcus aureus [2]) [µg/mL]	MIC (Staphylococcus aureus [3]) [µg/mL]	IC50 (Staphylococcus aureus [4]) [µg/mL]	MIC (Enterococcus faecium [5]) [µg/mL]	IC50 (Staphylococcus aureus [6]) [µg/mL]	MIC (Enterococcus faecium [7]) [µg/mL]	inhibition (Enterococcus faecium [8])	inhibition (Enterococcus faecium [9])	inhibition (Enterococcus faecium [10])	inhibition (Enterococcus faecium [11])	inhibition (Enterococcus faecium [12])
CN[C@H](CC(C)C)C(=O)N[C@H]1C(=O)N[C@@H](CC(N)=O)C(=O)N[C@H]2C(=O)N[C@H]3C(=O)N[C@H](C(=O)N[C@H](C(=O)NCc4c5oc6c(CNC(=O)[C@H]7NC(=O)[C@H]8NC(=O)[C@H](NC(=O)[C@@H]9NC(=O)[C@H](CC(N)=O)NC(=O)[C@H](NC(=O)[C@@H](CC(C)C)NC)[C@H](O)c%10ccc(c(Cl)c%10)Oc%10cc9cc(c%10O[C@@H]9O[C@H](CO)[C@@H](O)[C@H](O)[C@H]9O[C@H]9C[C@](C)(N)[C@H](O)[C@H](C)O9)Oc9ccc(cc9Cl)[C@H]8O)c8ccc(O)c(c8)-c8c(O)cc(O)cc87)cccc6nc-5cc(N)c4=O)c4cc(O)cc(O)c4-c4cc3ccc4O)[C@H](O)c3ccc(c(Cl)c3)Oc3cc2cc(c3O[C@@H]2O[C@H](CO)[C@@H](O)[C@H](O)[C@H]2O[C@H]2C[C@](C)(N)[C@H](O)[C@H](C)O2)Oc2ccc(cc2Cl)[C@H]1O	21 (≈ 6.7 µM)	1.2 (≈ 0.383 µM)	16 (≈ 5.11 µM)	64 (≈ 20.4 µM)	4 (≈ 1.28 µM)	200 (≈ 63.8 µM)	1 (≈ 0.319 µM)	–	–	–	–	–
CN[C@H](CC(C)C)C(=O)N[C@H]1C(=O)N[C@@H](CC(N)=O)C(=O)N[C@H]2C(=O)N[C@H]3C(=O)N[C@H](C(=O)N[C@H](C(=O)O)c4cc(O)cc(O)c4-c4cc3ccc4O)[C@H](O)c3ccc(c(Cl)c3)Oc3cc2cc(c3O[C@@H]2O[C@H](CO)[C@@H](O)[C@H](O)[C@H]2O[C@H]2C[C@](C)(NCc3cccc(NC(=O)c4ccc(C)c5oc6c(C)c(=O)c(N)c(C(=O)Nc7cccc(CN[C@@]8(C)C[C@H](O[C@H]9[C@H](Oc%10c%11cc%12cc%10Oc%10ccc(cc%10Cl)[C@@H](O)[C@@H](N)C(=O)N[C@@H](CC(N)=O)C(=O)N[C@H]%12C(=O)N[C@H]%10C(=O)N[C@H](C(=O)N[C@H](C(=O)O)c%12cc(O)cc(O)c%12-c%12cc%10ccc%12O)[C@H](O)c%10ccc(c(Cl)c%10)O%11)O[C@H](CO)[C@@H](O)[C@@H]9O)O[C@@H](C)[C@H]8O)c7)c-6nc45)c3)[C@H](O)[C@H](C)O2)Oc2ccc(cc2Cl)[C@H]1O	61 (≈ 18.6 µM)	11 (≈ 3.36 µM)	1 (≈ 0.305 µM)	74 (≈ 22.6 µM)	8 (≈ 2.44 µM)	300 (≈ 91.6 µM)	2 (≈ 0.611 µM)	inactive	inactive	inactive	inactive	inactive
CN[C@H](CC(C)C)C(=O)N[C@H]1C(=O)N[C@@H](CC(N)=O)C(=O)N[C@H]2C(=O)N[C@H]3C(=O)N[C@H](C(=O)N[C@H](C(=O)O)c4cc(O)cc(O)c4-c4cc3ccc4O)[C@H](O)c3ccc(c(Cl)c3)Oc3cc2cc(c3O[C@@H]2O[C@H](CO)[C@@H](O)[C@H](O)[C@H]2O[C@H]2C[C@](C)(NCc3c4oc5c(CN[C@@]6(C)C[C@H](O[C@H]7[C@H](Oc8c9cc%10cc8Oc8ccc(cc8Cl)[C@@H](O)[C@@H](NC(=O)[C@@H](CC(C)C)NC)C(=O)N[C@@H](CC(N)=O)C(=O)N[C@H]%10C(=O)N[C@H]8C(=O)N[C@H](C(=O)N[C@H](C(=O)O)c%10cc(O)cc(O)c%10-c%10cc8ccc%10O)[C@H](O)c8ccc(c(Cl)c8)O9)O[C@H](CO)[C@@H](O)[C@@H]7O)O[C@@H](C)[C@H]6O)cccc5nc-4cc(N)c3=O)[C@H](O)[C@H](C)O2)Oc2ccc(cc2Cl)[C@H]1O	31 (≈ 9.89 µM)	2.2 (≈ 0.702 µM)	2 (≈ 0.638 µM)	98 (≈ 31.3 µM)	8 (≈ 2.55 µM)	700 (≈ 223 µM)	1 (≈ 0.319 µM)	–	–	–	–	–
CN[C@H](CC(C)C)C(=O)N[C@H]1C(=O)N[C@@H](CC(N)=O)C(=O)N[C@H]2C(=O)N[C@H]3C(=O)N[C@H](C(=O)N[C@H](C(=O)O)c4cc(O)cc(O)c4-c4cc3ccc4O)[C@H](O)c3ccc(c(Cl)c3)Oc3cc2cc(c3O[C@@H]2O[C@H](CO)[C@@H](O)[C@H](O)[C@H]2O[C@H]2C[C@](C)(N)[C@H](O)[C@H](C)O2)Oc2ccc(cc2Cl)[C@H]1O	–	–	–	–	–	–	–	inactive	inactive	inactive	inactive	inactive
CN[C@H](CC(C)C)C(=O)N[C@H]1C(=O)N[C@@H](CC(N)=O)C(=O)N[C@H]2C(=O)N[C@H]3C(=O)N[C@H](C(=O)N[C@H](C(=O)NCc4cccc(NC(=O)c5c6nc7c(C(=O)Nc8cccc(CNC(=O)[C@H]9NC(=O)[C@H]%10NC(=O)[C@H](NC(=O)[C@@H]%11NC(=O)[C@H](CC(N)=O)NC(=O)[C@H](NC(=O)[C@@H](CC(C)C)NC)[C@H](O)c%12ccc(c(Cl)c%12)Oc%12cc%11cc(c%12O[C@@H]%11O[C@H](CO)[C@@H](O)[C@H](O)[C@H]%11O[C@H]%11C[C@](C)(N)[C@H](O)[C@H](C)O%11)Oc%11ccc(cc%11Cl)[C@H]%10O)c%10ccc(O)c(c%10)-c%10c(O)cc(O)cc%109)c8)ccc(C)c7oc-6c(C)c(=O)c5N)c4)c4cc(O)cc(O)c4-c4cc3ccc4O)[C@H](O)c3ccc(c(Cl)c3)Oc3cc2cc(c3O[C@@H]2O[C@H](CO)[C@@H](O)[C@H](O)[C@H]2O[C@H]2C[C@](C)(N)[C@H](O)[C@H](C)O2)Oc2ccc(cc2Cl)[C@H]1O	–	–	8 (≈ 2.35 µM)	–	16 (≈ 4.71 µM)	–	16 (≈ 4.71 µM)	inactive	inactive	inactive	inactive	inactive
Cc1c2oc3c(C)ccc(C(=O)Nc4cccc(CN[C@@]5(C)C[C@H](O[C@H]6[C@H](Oc7c8cc9cc7Oc7ccc(cc7Cl)[C@@H](O)[C@@H](N)C(=O)N[C@@H](CC(N)=O)C(=O)N[C@H]9C(=O)N[C@H]7C(=O)N[C@H](C(=O)N[C@H](C(=O)O)c9cc(O)cc(O)c9-c9cc7ccc9O)[C@H](O)c7ccc(c(Cl)c7)O8)O[C@H](CO)[C@@H](O)[C@@H]6O)O[C@@H](C)[C@H]5O)c4)c3nc-2c(C(=O)Nc2cccc(CN[C@@]3(C)C[C@H](O[C@H]4[C@H](Oc5c6cc7cc5Oc5ccc(cc5Cl)[C@@H](O)[C@@H](N)C(=O)N[C@@H](CC(N)=O)C(=O)N[C@H]7C(=O)N[C@H]5C(=O)N[C@H](C(=O)N[C@H](C(=O)O)c7cc(O)cc(O)c7-c7cc5ccc7O)[C@H](O)c5ccc(c(Cl)c5)O6)O[C@H](CO)[C@@H](O)[C@@H]4O)O[C@@H](C)[C@H]3O)c2)c(N)c1=O	100 (≈ 31.8 µM)	20 (≈ 6.36 µM)	4 (≈ 1.27 µM)	460 (≈ 146 µM)	> 64	530 (≈ 168 µM)	32 (≈ 10.2 µM)	–	–	–	–	–
